Measurements taken from patent US8507541B2, “N-hydroxyamidinoheterocycles as modulators of indoleamine 2,3-dioxygenase” (Incyte Corporation, priority 2006, dated 2013).

Key:
LLC tumors = LLC tumors in C57Bl/6 mice, versus placebo (Friberg et al); cited from earlier work
P815 tumor = settings: pre-immunized immune-competent mice, P815 (Uyttenhove et al); cited from earlier work
[1] = target: T1, Human idoleamine 2,3-dioxygenase (IDO) (Homo sapiens, UniProt P14902); experiment: Human indoleamine 2,3-dioxygenase (IDO) enzyme assay; format: biochemical; settings: 95 nM IDO, 2 mM D-Trp, pH 6.5, room temperature, absorbance at 321 nm
T1 construct: His tag (N); made in house; host or cells: E. coli
Protocol: Human idoleamine 2,3-dioxygenase (IDO) with an N-terminal His tag was expressed in E. coli and purified to homogeneity. IDO catalyzes the oxidative cleavage of the pyrrole ring of the indole nucleus of tryptophan to yield N′-formylkynurenine. The assays were performed at room temperature as described in the literature using 95 nM IDO and 2 mM D-Trp in the presence of 20 mM ascorbate, 5 μM methylene blue and 0.2 mg/mL catalase in 50 mM potassium phosphate buffer (pH 6.5). The initial reaction rates were recorded by continuously following the absorbance increase at 321 nm due to the formation of N′-formylkynurenine. […] The symbol “+” indicates IC50<1000 […].

T1 sequence (P14902 whole entry): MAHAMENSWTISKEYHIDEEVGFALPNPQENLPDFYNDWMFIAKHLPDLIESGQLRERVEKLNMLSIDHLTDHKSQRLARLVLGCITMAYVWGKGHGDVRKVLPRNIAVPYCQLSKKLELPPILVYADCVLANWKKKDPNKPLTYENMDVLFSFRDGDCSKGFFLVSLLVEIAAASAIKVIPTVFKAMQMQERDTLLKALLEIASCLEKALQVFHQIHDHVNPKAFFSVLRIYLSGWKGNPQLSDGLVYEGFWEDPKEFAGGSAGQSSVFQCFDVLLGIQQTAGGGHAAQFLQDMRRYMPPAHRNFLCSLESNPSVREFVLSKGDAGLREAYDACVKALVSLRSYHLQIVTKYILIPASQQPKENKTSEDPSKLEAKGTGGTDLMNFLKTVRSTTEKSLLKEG

For Cn1cc(C[C@H](N)C(=O)O)c2ccccc21 [Example 1-MT, 1-methyl-tryptophan], the formation of tumors (LLC tumors) is given as “markedly delayed” and the growth of tumors (P815 tumor) is given as “inhibited”.

Work on ON=C(Nc1ccc(F)c(Cl)c1)c1cc(OCCCN2CCCC2)no1 [Example 2, N-(3-Chloro-4-fluorophenyl)-N′-hydroxy-3-(3-pyrrolidin-1-ylpropoxy)isoxazole-5-carboximidamide] yielded an IC50 [1] of over 10 µM.

Work on ON=C(Nc1ccc(F)c(Cl)c1)c1cc(N2CCOCC2)no1 [Example 3, N-(3-Chloro-4-fluorophenyl)-N′-hydroxy-3-morpholin-ylisoxazole-5-carboximidamide] yielded an IC50 [1] of over 10 µM.

CC(=O)Nc1cc(C(=NO)NCc2cc(Cl)ccc2C)on1 [Example 22, N-[5-[(5-chloro-2-methylbenzyl)amino](hydroxyimino)methyl]isoxazol-3-ylacetamide] gave an IC50 [1] of over 10 µM.
